Calls of active or inactive are those of the source. No cut-off for these calls is given here.
What was measured:
[1] = biological target: Sphingosine 1-phosphate receptor 3 (Homo sapiens, UniProt Q99500); experiment: Agonist activity at human recombinant S1P3 expressed in CHO cell membranes assessed as stimulation of [35S]-GTPgammaS binding measured after 45 mins by liquid scintillation counting assay; design: species or system Cell membrane
[2] = Cardiotoxicity in human iPSC derived cardiomyocytes assessed as reduction in beating rate at 10 nM measured over 2 hrs by multi-electrode array relative to control; format: toxicity, cell-based; design: scale not given: the % may be the effect or the level left; details: stem cell-derived cardiomyocyte, 0.01 µM
[3] = Pulmonary toxicity in Lewis rat assessed as elevation of BAL protein level at 1 mg/kg by advia1800 chemistry analyzer; format: organism-based; details: in vivo
[4] = Cardiotoxicity in human iPSC derived cardiomyocytes assessed as reduction in beating rate at 1 nM measured over 2 hrs by multi-electrode array relative to control; format: toxicity, cell-based; design: scale not given: the % may be the effect or the level left; details: stem cell-derived cardiomyocyte, 0.001 µM
[5] = Tmax in cynomolgus monkey at 1 mg/kg, po or 1 mg/kg, iv; format: ADME, organism-based, Macaca fascicularis; details: in vivo
[6] = Tmax in Beagle dog at 0.3 mg/kg, po or 1 mg/kg, iv; format: ADME, organism-based, Canis lupus familiaris; details: in vivo
Cerebellar cortex [7] = experiment: Induction of remyelination in lysophosphatidylcholine-induced demyelination in wild-type CD1 mouse organotypic cerebellar slice assessed as myelination index at 0.01 to 10 nM incubated for 7 days by immunohistochemistry based three-dimensional brain cell culture assay (reference value: 50%); format: functional; details: dose 0.01-10 nM, time 7 day
[8] = Tmax in Sprague-Dawley rat at 1 mg/kg, po or 1 mg/kg, iv; format: ADME, organism-based; details: in vivo
Cerebellar cortex [9] = experiment: Induction of remyelination in lysophosphatidylcholine-induced demyelination in wild-type CD1 mouse organotypic cerebellar slice at 0.01 to 10 nM incubated for 7 days by immunohistochemistry based three-dimensional brain cell culture assay; format: functional, tissue-based; details: dose 0.01-10 nM, time 7.0 day
[10] = biological target: T1, Sphingosine 1-phosphate receptor 4 (Homo sapiens, UniProt O95977); experiment: Agonist activity at human recombinant S1P4 expressed in CHO cell membranes assessed as stimulation of [35S]-GTPgammaS binding measured after 45 mins by liquid scintillation counting assay; format: functional, Cell membrane
T1 sequence (O95977 whole entry): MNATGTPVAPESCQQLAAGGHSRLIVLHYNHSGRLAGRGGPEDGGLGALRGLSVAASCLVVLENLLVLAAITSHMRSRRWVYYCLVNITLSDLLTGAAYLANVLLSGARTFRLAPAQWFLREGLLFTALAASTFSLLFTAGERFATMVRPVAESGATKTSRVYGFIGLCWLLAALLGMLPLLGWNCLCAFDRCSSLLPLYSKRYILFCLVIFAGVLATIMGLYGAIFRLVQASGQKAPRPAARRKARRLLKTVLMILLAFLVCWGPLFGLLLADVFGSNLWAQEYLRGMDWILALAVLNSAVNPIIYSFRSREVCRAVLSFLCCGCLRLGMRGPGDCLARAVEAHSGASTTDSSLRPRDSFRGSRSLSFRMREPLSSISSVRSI

[11] = Antimigratory activity against human T cells assessed as inhibition of S1P-induced T cell migration preincubated for 10 mins followed by addition of S1P measured after 120 mins by calcein-AM dye based fluorescence analysis; format: functional
[12] = Ratio of drug metabolism in Lewis rat blood assessed as phosphate ester metabolite to parent drug at 2 mg/kg, po measured at 24 hrs by LC-MS/MS analysis; format: ADME, organism-based; details: in vivo
[13] = Pulmonary toxicity in Lewis rat assessed as elevation of BAL protein level at 25 mg/kg by advia1800 chemistry analyzer; format: organism-based; details: in vivo
Rattus norvegicus [14] = experiment: Drug metabolism in Lewis rat blood assessed as concentration of phosphate ester metabolite formation at 2 mg/kg, po measured at 4 hrs by LC-MS/MS analysis; details: in vivo
[15] = Drug metabolism in Lewis rat blood assessed as concentration of parent compound at 2 mg/kg, po measured at 4 hrs by LC-MS/MS analysis; format: ADME, organism-based; details: read-out: Ct
Rattus norvegicus [16] = experiment: Reduction in circulating lymphocytes in Lewis rat blood assessed as effective dose after oral dosing measured at 24 hrs by hematology analyzer based analysis; format: functional
[17] = Half-life in Lewis rat at 2 mg/kg, po measured over 72 hrs by LC-MS/MS analysis; format: ADME, organism-based; details: in vivo
Rattus norvegicus [18] = experiment: Reduction in circulating lymphocytes in Lewis rat blood at 2 mg/kg, po measured at 4 hrs by hematology analyzer based analysis; format: functional; design: scale not given: the % may be the effect or the level left
Rattus norvegicus [19] = experiment: Reduction in circulating lymphocytes in Lewis rat blood at 2 mg/kg, po measured at 24 hrs by hematology analyzer based analysis; format: functional; design: scale not given: the % may be the effect or the level left
[20] = Drug metabolism in Lewis rat blood assessed as concentration of parent compound at 2 mg/kg, po measured at 24 hrs by LC-MS/MS analysis; format: ADME, organism-based; details: read-out: Ct

Sequence of Sphingosine 1-phosphate receptor 3 (Q99500 whole entry): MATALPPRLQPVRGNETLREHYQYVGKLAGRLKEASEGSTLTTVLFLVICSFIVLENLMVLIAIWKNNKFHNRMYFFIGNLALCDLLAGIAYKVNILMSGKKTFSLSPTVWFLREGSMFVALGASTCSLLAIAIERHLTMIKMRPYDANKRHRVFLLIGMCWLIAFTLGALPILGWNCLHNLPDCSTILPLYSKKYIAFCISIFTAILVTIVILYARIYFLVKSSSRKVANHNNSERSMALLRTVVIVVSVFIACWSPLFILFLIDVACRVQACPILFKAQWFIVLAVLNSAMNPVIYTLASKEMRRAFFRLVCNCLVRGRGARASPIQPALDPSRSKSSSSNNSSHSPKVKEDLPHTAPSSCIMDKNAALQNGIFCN

CCCCCC[C@@H]1CCc2cc([C@H]3CC[C@](N)(COP(=O)(O)O)C3)ccc2C1
EC50 [1]: > 1000 nM

O=C(O)C[C@H]1CCCN(C[C@@H](O)c2ccc(-c3noc(-c4onc(-c5ccccc5)c4C(F)(F)F)n3)cc2)C1
Activity [2]: 57% | Activity [3]: 24.3 mg/dL | Activity [4]: 36%

COc1ccccc1CC[C@@H]1CCc2cc([C@H]3CC[C@](N)(COP(=O)(O)O)C3)ccc2C1
Tmax [5]: 6 h | Tmax [6]: 6 h | Activity (Cerebellar cortex [7]): 100% | Activity [2]: 27% | Tmax [8]: 6 h | Activity (Cerebellar cortex [9]): Active | EC50 [10]: 3.4 nM | IC50 [11]: 0.6 nM | Activity [4]: 11% | EC50 [1]: > 1000 nM

COc1ccc(CC[C@H]2CCc3cc([C@H]4CC[C@](N)(CO)C4)ccc3C2)cc1
Ratio [12]: 0.75 | Activity [13]: 24.3 mg/dL | Drug metabolism (Rattus norvegicus [14]): 10 nM | concentration at 4 h [15]: 170 nM | ED50 (Rattus norvegicus [16]): 0.6 mg/kg | half-life [17]: 7 h | Activity (Rattus norvegicus [18]): 33% | Activity (Rattus norvegicus [19]): 84% | concentration at 24 h [20]: 40 nM

Reference: ChEMBL document CHEMBL4765241, “Identification and Preclinical Pharmacology of ((1 R,3 S)-1-Amino-3-(( S)-6-(2-methoxyphenethyl)-5,6,7,8-tetrahydronaphthalen-2-yl)cyclopentyl)methanol (BMS-986166): A Differentiated Sphingosine-1-phosphate Receptor 1 (S1P) Modulator Advanced into Clinical Trials” (J Med Chem, 2019)
